How the values were obtained:
[1] = target: human MT1 receptor (Homo sapiens, UniProt P48039); experiment: Activation of human MT1 receptor in receptor-expressing HEK293 cells (intracellular Ca2+, FLIPR); format: cell-based; details: for Emax: HEK293, maximum reaction by ramelteon taken as 100%, solvent only 0%, read-out: MT1 Emax (%); for EC50: HEK293 cells stably expressing human MT1 and Gq/i chimeric G-protein, intracellular Ca2+ by FLIPR
Procedure: (§1) (1) Isolation of Human MT1 and MT2 Receptor and Construction of Expression Vector
(§2) A human MT1 receptor gene (GenBank Accession No.: NM_005958.3) and a human MT2 receptor gene (GenBank Accession No.: NM_005959.3) were each introduced into an expression vector pCDNA3.1/Zeo (Invitrogen, Inc.).
(§3) (2) Construction of Cells Stably Expressing Human MT1 and Human MT2 Receptor
(§4) The introduction was carried out according to the attached instructions, using a Lipofectoamine (registered trademark) 2000 Reagent (Invitrogen, Inc.). Zeocin and hygromycin were used as a resistant drug, and the cell was incubated for 15 days at 0.02 mg/mL and 0.05 mg/mL, respectively, thereby acquiring drug-resistant clones.
(§5) (3) Measurement of Intracellular Ca^2+ Concentration by FLIPR (Registered Trademark)
(§6) The respective stably expressing cells were dispensed into 96-well poly-D-lysine-coated plates (Falcon Co.) to 40,000 cells/well the day before the experiment, and incubated overnight in a DMEM (Invitrogen, Inc.) medium including 10% FBS at 37° C. and 5% CO2. The medium was replaced with a loading buffer (washing solution (Hank's balanced salt solution (HBSS), 20 mM HEPES-NaOH, 2.5 mM probenecid) including Fluo-4AM (Dojindo Co.) at 4 μM), and incubated for 1 hour at 37° C. and 5% CO2. Thereafter, the cells were washed with a plate washer (ELx405, BIO-TEK Instrument, Inc.) set with the washing solution, and set in an intracellular Ca^2+ concentration measuring systems (FLIPR (registered trademark), Molecular Device Co.). The test compound was dissolved in the washing solution in advance, diluted to a final concentration of −12 to −5 log M, set in a FLIPR (registered trademark) device together with the cells, and added to the cells in the device. At this time, a change in the intracellular Ca^2+ concentrations was measured.
(§7) Ex represents Example No. of the test compound.

[2] = target: T1, human MT2 receptor (Homo sapiens, UniProt P49286); experiment: Activation of human MT2 receptor in receptor-expressing HEK293 cells (intracellular Ca2+, FLIPR); format: cell-based; details: for Emax: HEK293, maximum reaction by ramelteon taken as 100%, solvent only 0%; for EC50: HEK293 cells stably expressing human MT2 and Gq/i chimeric G-protein, intracellular Ca2+ by FLIPR
T1 sequence (P49286 1-362): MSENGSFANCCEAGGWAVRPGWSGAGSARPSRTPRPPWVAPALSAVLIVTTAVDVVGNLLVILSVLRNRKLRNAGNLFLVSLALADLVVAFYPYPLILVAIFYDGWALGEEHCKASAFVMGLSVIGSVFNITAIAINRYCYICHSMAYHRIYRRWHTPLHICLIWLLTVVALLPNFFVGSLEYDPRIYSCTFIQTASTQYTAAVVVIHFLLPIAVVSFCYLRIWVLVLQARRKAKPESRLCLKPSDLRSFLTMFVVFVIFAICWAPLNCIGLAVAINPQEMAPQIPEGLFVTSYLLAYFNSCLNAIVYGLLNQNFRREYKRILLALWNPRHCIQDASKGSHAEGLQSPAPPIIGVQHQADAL
Procedure: as §1, §2, §3, §4, §5, §6, §7

[3] = CNS penetration: CSF to plasma unbound concentration ratio in rat; format: in vivo; details: CSF and plasma (unbound), iv; for Kp uu at 0.25 h: 15 minutes after intravenous administration, CCSF/Cplasma,u, read-out: Kp,uu,CSF,iv15min
Procedure: Test Example 4 Test for Evaluating CNS Penetration
(1) Measurement of Unbound Fraction (fp) in Rat Plasma
A test compound (100 μg/mL, 50% acetonitrile solution) at 1% (v/v) with respect to the amount of the plasma was added to rat plasma, and dispensed to a sample for a supernatant and a sample for the plasma. The sample for a supernatant was ultracentrifuged at 436,000×g and 37° C. for 140 minutes, and the sample for the plasma was incubated at 37° C. for 140 minutes.
After 140 minutes, the sample for a supernatant after the ultracentrifugation and the sample for the plasma were taken, and mixed with the blank plasma or the blank supernatant, respectively. Acetonitrile including an internal standard material was added to each of the samples, and after the centrifugation at 2150×g and 4° C. for 10 minutes the supernatant was injected into LC-MS/MS.
The unbound fraction in the plasma was calculated by the following equation.
(wherein fp: an unbound fraction in the plasma and D: a dilution rate of the plasma. fu,app=peak area ratio of supernatant sample/peak area ratio of the plasma sample, and peak area ratio=peak area of test compound/peak area of internal standard material).
(2) The CSF to Plasma Unbound Concentration Ratio in Rat
A 50% acetonitrile solution and an acetonitrile including internal standard material was added to the collected plasma or CSF. After centrifugation at 4° C. and 2150×g for 10 minutes, the supernatant was injected into LC-MS/MS, and the total concentration of the test compound in the plasma (Cplasma,t) and the concentration of the test compound in CSF (CCSF) were obtained. The unbound concentration in the plasma (Cplasma,u) of the test compound and the CSF-to plasma unbound concentration ratio (Kp,uu,CSF) of the test compound was calculated by the following equation.
as §7

[4] = system: 3T3; experiment: In vitro 3T3 NRU phototoxicity test; format: cell-based
Procedure: Test Example 6 Drug Pharmacokinetic Test, Safety Pharmacology Test, and Toxicity Test
Using some Example compounds of the present invention, a drug Pharmacokinetic test, a safety pharmacology test, and a toxicity test were carried out.
(iii) For the toxicity test, for example, an in vitro phototoxicity test was carried out. The evaluation of the in vitro phototoxicity test was carried out in accordance with Guidance for industry photosafety testing, Center for Drug Evaluation and Research Food and Drug Administration, 2003, which is a guideline of FDA (U.S. Food and Drug Administration), and Note for guidance on photosafety testing (CPMP/SWP/398/01, 2002) which is a guideline of EMA (European Medicines Agency), and the method described in OECD guideline for testing of chemicals 432: In vitro 3T3 NRU phototoxicity test, 2004, which is a test method described in the report of OECD.

[5] = system: isolated urethra; experiment: Test confirming that urethra contractile action by ramelteon is through MT1 and/or MT2 receptor (Luzindole); set-up: species or system rat; details: ramelteon 1 μM; solvent added instead of Luzindole; first contraction by ramelteon as 100%
Procedure: (2) Test for Confirming that Urethra Contractile Action is Action Through MT1 and/or MT2 Receptor
The urethra was isolated from an SD female rat having a body weight of 100 to 500 g. The isolated urethra was incised longitudinally to give a rectangular strip specimen having a width of about 3 mm, which was suspended in the muscle parallel to the circular to 10 mL of a tissue bath filled with a Krebs-Henseleit solution (pH 7.4). […] The resting tension was set to 0.5 g to record the isometric contraction. After the resting tension was stabilized, contraction was elicited by the addition of 10 μM phenylephrine. After washing and stabilizing, the test compound (ramelteon) at 1 μM was added to measure a contractile response. After washing and stabilizing, a solvent or Luzindole (purchased from Wako Pure Chemical Industries, Ltd.) (0.1 μM, 1 μM, or 10 μM) was added to the same specimen, and after 20 minutes, ramelteon at 1 μM was added again thereto to measure a contractile reaction. When the first contraction by ramelteon at 1 μM was taken as 100%, the second contractile rate by ramelteon was measured.

human MT1 receptor, sequence (P48039 whole entry): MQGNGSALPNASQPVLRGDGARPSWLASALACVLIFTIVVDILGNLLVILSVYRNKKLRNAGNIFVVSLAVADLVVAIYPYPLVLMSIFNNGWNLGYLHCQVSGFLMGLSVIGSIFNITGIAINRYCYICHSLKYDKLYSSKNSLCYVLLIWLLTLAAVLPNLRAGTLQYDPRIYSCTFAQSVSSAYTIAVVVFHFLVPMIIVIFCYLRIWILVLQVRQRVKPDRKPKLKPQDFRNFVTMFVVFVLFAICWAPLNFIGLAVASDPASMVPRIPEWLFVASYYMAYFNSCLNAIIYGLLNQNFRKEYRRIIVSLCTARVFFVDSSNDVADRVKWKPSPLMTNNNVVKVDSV

| Compound | Emax [1] | EC50 [1] | Emax [2] | EC50 [2] | Kp uu at 0.25 h [3] | phototoxicity action [4] | melting point | Second contractile rate by ramelteon (%) [5] | Kp uu at 10 min ([3]; 10 minutes after the intravenous administration) |
| --- | --- | --- | --- | --- | --- | --- | --- | --- | --- |
| CNC(=O)c1[nH]c2ccc(OC)cc2c1CCNC(=O)C(F)F [Ex 2, 3-{2-[(difluoroacetyl)amino]ethyl}-5-methoxy-N-methyl-1H-indole-2-carboxamide] | 102% | 11 nM | 109% | 28 nM | 0.11 | no phototoxicity action | 212 to 215 °C |  |  |
| CCC(=O)NCC[C@@H]1CCc2ccc3c(c21)CCO3 [Ramelteon, reference compound] | 100% | 0.28 nM | 100% | 1.1 nM |  |  |  | 98 ± 10% | > 1 |
| CNC(=O)c1[nH]c2cc(F)c(OC)cc2c1CCNC(C)=O [Ex 17] | 86% | 20 nM | 94% | 58 nM | 0.08 | no phototoxicity action |  |  |  |
